Strand notation (5' to 3'): a small letter for the sugar, then the base; units joined by * are phosphorothioate-linked, units joined directly phosphodiester-linked; [ ] holds rarer units or linkages, { } end groups; capitals alone tell only the bases. e = 2'-O-(2-methoxyethyl) (MOE); [5mC] = 5-methylcytosine; d = 2'-deoxy (DNA)
Tested on: Human B7-1 mRNA
Assay: Human B7-1 mRNA expression in electroporated, LPS-induced THP-1 cells
Assay type: cell-based
Details: THP-1 cells electroporated at 10 micromolar oligonucleotide, LPS 1 μg/ml 16 hours
Excerpt: (§1) The human promonocytic leukaemia cell line, THP-1 (American Type Culture Collection, Manassas, Va.) was maintained in RPMI 1640 growth media supplemented with 10% fetal calf serum (FCS; Life Technologies, Rockville, Md.). A total of 1×10^7 cells were electroporated at an oligonucleotide concentration of 10 micromolar in 2 mm cuvettes, using an Electrocell Manipulator 600 instrument (Biotechnologies and Experimental Research, Inc.) employing 200 V, 1000 μF. Electroporated cells were then transferred to petri dishes and allowed to recover for 16 hrs. Cells were then induced with LPS at a final concentration of 1 μg/ml for 16 hours. RNA was isolated and processed as described in previous examples.

Substance	% mRNA EXPRESSION	% mRNA INHIBITION
113510 (antisense eA*eG*eG*eA*eA*dA*dA*dT*dG*d[5mC]*dT*d[5mC]*dT*dT*dG*e[5mC]*eT*eT*eG*eG) [compound 113510]	43%	57%
113500 (antisense eG*eT*eG*eA*e[5mC]*d[5mC]*dA*d[5mC]*dA*dG*dG*dA*d[5mC]*dA*dG*e[5mC]*eG*eT*eT*eG) [compound 113500]	83%	17%
113490 (antisense eG*eA*eA*eG*eA*d[5mC]*d[5mC]*d[5mC]*dT*d[5mC]*d[5mC]*dA*dG*dT*dG*eA*eT*eG*eT*eT) [compound 113490]	183%	–
113508 (antisense e[5mC]*eT*eG*eT*eT*dG*dT*dG*dT*dT*dG*dA*dT*dG*dG*e[5mC]*eA*eT*eT*eT) [compound 113508]	117%	–
113501 (antisense eA*eG*eA*eT*eG*d[5mC]*dG*dA*dG*dT*dT*dT*dG*dT*dG*e[5mC]*e[5mC]*eA*eG*e[5mC]) [compound 113501]	36%	64%
113497 (antisense eA*eG*eG*eT*eA*dT*dG*dG*dA*d[5mC]*dA*d[5mC]*dT*dT*dG*eG*eA*eT*eG*eG) [compound 113497]	78%	22%
113491 (antisense e[5mC]*eG*eT*eA*eG*dA*dA*dG*dA*d[5mC]*d[5mC]*d[5mC]*dT*d[5mC]*d[5mC]*eA*eG*eT*eG*eA) [compound 113491]	179%	–
113489 (antisense e[5mC]*e[5mC]*e[5mC]*eT*e[5mC]*d[5mC]*dA*dG*dT*dG*dA*dT*dG*dT*dT*eT*eA*e[5mC]*eA*eA) [compound 113489]	122%	–
113495 (antisense eG*eG*eT*eG*eA*dT*dG*dT*dT*d[5mC]*d[5mC]*d[5mC]*dT*dG*d[5mC]*e[5mC]*eT*e[5mC]*e[5mC]*eG) [compound 113495]	43%	57%
113511 (antisense eT*eG*eG*eG*eA*dG*d[5mC]*dA*dG*dG*dT*dT*dA*dT*d[5mC]*eA*eG*eG*eA*eA) [compound 113511]	48%	52%
113506 (antisense eT*eA*eA*e[5mC]*eG*dT*d[5mC]*dA*d[5mC]*dT*dT*d[5mC]*dA*dG*d[5mC]*e[5mC]*eA*eG*eG*eT) [compound 113506]	105%	–
113513 (antisense eG*eG*eT*e[5mC]*eA*dG*dG*d[5mC]*dA*dG*d[5mC]*dA*dT*dA*dT*e[5mC]*eA*e[5mC]*eA*eA) [compound 113513]	48%	52%
113516 (antisense eT*eT*eT*eG*eT*dT*dA*dA*dG*dG*dG*dA*dA*dG*dA*eA*eT*eG*e[5mC]*e[5mC]) [compound 113516]	83%	17%
113502 (antisense e[5mC]*e[5mC]*eT*eT*eT*dT*dG*d[5mC]*d[5mC]*dA*dG*dT*dA*dG*dA*eT*eG*e[5mC]*eG*eA) [compound 113502]	26%	74%
113512 (antisense eT*eA*eA*eG*eG*dT*dA*dA*dT*dG*dG*d[5mC]*d[5mC]*d[5mC]*dA*eG*eG*eA*eT*eG) [compound 113512]	73%	27%
113503 (antisense e[5mC]*eG*eG*eT*eT*d[5mC]*dT*dT*dG*dT*dA*d[5mC]*dT*d[5mC]*dG*eG*eG*e[5mC]*e[5mC]*eA) [compound 113503]	65%	35%
113507 (antisense eT*eT*e[5mC]*eT*e[5mC]*d[5mC]*dA*dT*dT*dT*dT*d[5mC]*d[5mC]*dA*dA*e[5mC]*e[5mC]*eA*eG*eG) [compound 113507]	36%	64%
113494 (antisense e[5mC]*e[5mC]*eT*e[5mC]*e[5mC]*dG*dT*dG*dT*dG*dT*dG*dG*d[5mC]*d[5mC]*e[5mC]*eA*eT*eG*eG) [compound 113494]	77%	23%
113515 (antisense eA*eG*eA*eT*e[5mC]*dT*dT*dT*dT*d[5mC]*dA*dG*d[5mC]*d[5mC]*d[5mC]*e[5mC]*eT*eT*eG*e[5mC]) [compound 113515]	184%	–
113505 (antisense e[5mC]*eT*eT*e[5mC]*eA*dG*d[5mC]*d[5mC]*dA*dG*dG*dT*dG*dT*dT*e[5mC]*e[5mC]*e[5mC]*eG*e[5mC]) [compound 113505]	40%	60%
113509 (antisense e[5mC]*eA*eT*eG*eA*dA*dG*d[5mC]*dT*dG*dT*dG*dG*dT*dT*eG*eG*eT*eT*eG) [compound 113509]	62%	38%
113518 (antisense e[5mC]*eA*eA*eG*eA*d[5mC]*dA*dA*dT*dT*d[5mC]*dA*dA*dG*dA*eT*eG*eG*e[5mC]*eA) [compound 113518]	97%	03%
113504 (antisense e[5mC]*eG*e[5mC]*eA*eG*dA*dG*d[5mC]*d[5mC]*dA*dG*dG*dA*dT*d[5mC]*eA*e[5mC]*eA*eA*eT) [compound 113504]	46%	54%
113493 (antisense eT*eG*eG*e[5mC]*eT*dT*d[5mC]*dA*dG*dA*dT*dG*d[5mC]*dT*dT*eA*eG*eG*eG*eT) [compound 113493]	488%	–
113492 (antisense eT*eT*e[5mC]*e[5mC]*e[5mC]*dA*dG*dG*dT*dG*d[5mC]*dA*dA*dA*dA*e[5mC]*eA*eG*eG*e[5mC]) [compound 113492]	27%	73%

Tested on: Human B7-2 mRNA
Assay: Human B7-2 mRNA expression in electroporated THP-1 cells induced with LPS and dibutyryl cAMP
Assay type: cell-based
Details: THP-1 cells electroporated at 10 micromolar oligonucleotide, LPS and dibutyryl cAMP (500 μM) 16 hours
Excerpt: as §1, with “hrs” for “hrs.”, “and dibutyryl cAMP (500 μM)” for “at a final concentration of 1 μg/ml”

Substance	% mRNA EXPRESSION	% mRNA INHIBITION
113135 (antisense eT*e[5mC]*e[5mC]*eA*eA*dA*dA*dA*dG*dA*dG*dA*d[5mC]*d[5mC]*dA*eG*eA*eT*eG*e[5mC]) [compound 113135]	66%	34%
113141 (antisense eA*eG*eG*e[5mC]*eT*dT*dT*dG*dG*dT*dT*dT*dT*dG*dA*eG*eA*eG*eT*eT) [compound 113141]	126%	–
113137 (antisense e[5mC]*eT*eT*e[5mC]*eA*dG*dA*dG*dG*dA*dG*d[5mC]*dA*dG*d[5mC]*eA*e[5mC]*e[5mC]*eA*eG) [compound 113137]	57%	43%
113133 (antisense eT*eA*eT*eT*eT*dG*d[5mC]*dG*dA*dG*d[5mC]*dT*d[5mC]*d[5mC]*d[5mC]*e[5mC]*eG*eT*eA*e[5mC]) [compound 113133]	214%	–
113147 (antisense e[5mC]*e[5mC]*eG*eT*eG*dT*dA*dT*dA*dG*dA*dT*dG*dA*dG*e[5mC]*eA*eG*eG*eT) [compound 113147]	35%	65%
113134 (antisense eG*e[5mC]*eA*eT*eA*dA*dG*d[5mC]*dA*d[5mC]*dA*dG*d[5mC]*dA*dG*e[5mC]*eA*eT*eT*e[5mC]) [compound 113134]	27%	73%
113151 (antisense eT*eG*e[5mC]*eT*e[5mC]*dG*dT*dA*dA*d[5mC]*dA*dT*d[5mC]*dA*dG*eG*eG*eA*eA*eT) [compound 113151]	208%	–
113159 (antisense eA*eG*eT*e[5mC]*eT*d[5mC]*d[5mC]*dT*d[5mC]*dT*dT*dG*dG*d[5mC]*dA*eT*eA*e[5mC]*eG*eG) [compound 113159]	43%	57%
113136 (antisense eA*eA*eA*eT*eG*d[5mC]*d[5mC]*dT*dG*dT*d[5mC]*d[5mC]*dA*d[5mC]*dT*eG*eT*eA*eG*e[5mC]) [compound 113136]	81%	19%
113144 (antisense eA*eG*e[5mC]*e[5mC]*e[5mC]*dT*dT*dG*dT*d[5mC]*d[5mC]*dT*dT*dG*dA*eT*e[5mC]*eT*eG*eA) [compound 113144]	41%	59%
113148 (antisense eA*e[5mC]*e[5mC]*eG*eT*dG*dT*dA*dT*dA*dG*dA*dT*dG*dA*eG*e[5mC]*eA*eG*eG) [compound 113148]	23%	77%
113146 (antisense eA*eA*eT*e[5mC]*eA*dT*dT*d[5mC]*d[5mC]*dT*dG*dT*dG*dG*dG*e[5mC]*eT*eT*eT*eT) [compound 113146]	32%	68%
113132 (antisense eG*e[5mC]*eT*eG*e[5mC]*dT*dT*d[5mC]*dT*dG*d[5mC]*dT*dG*dT*dG*eA*e[5mC]*e[5mC]*eT*eA) [compound 113132]	17%	83%
113143 (antisense eG*eG*eT*e[5mC]*e[5mC]*dT*dG*d[5mC]*d[5mC]*dA*dA*dA*dA*dT*dA*e[5mC]*eT*eA*e[5mC]*eT) [compound 113143]	118%	–
113152 (antisense eA*eA*eG*eA*eT*dG*dG*dT*d[5mC]*dA*dT*dA*dT*dT*dG*e[5mC]*eT*e[5mC]*eG*eT) [compound 113152]	89%	11%

Source: patent US7897582B2, “Oligonucleotide compositions and methods for the modulation of the expression of B7 protein” (Isis Pharmaceuticals, Inc., priority 2003, dated 2011)
